Data reported in PubChem BioAssay AID2060912 (Molecular Pharmacology Branch, DTP, NCI, 2025).

Tested on: HUVEC/MSC spheroids viability
Assay: Human HUVEC/MSC cell line growth inhibition [KRAS2];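 for viability, T/C: percent of DMSO vehicle control luminescence so 100% = untreated viability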
Conditions: for IC50: curve of first compound; for viability, T/C: stronger effect = lower value
In short: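 Spheroids of human HUVEC plus MSCs, without tumor cells, were treated with single agents and combinations. Each drug was tested in half-log steps down from near its clinical Cmax, or from 10 microM when Cmax was unknown. HUVEC and hMSC were used at passage </=5.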

[1] = second compound 0.0316 µM, first compound 0.00949 µM
[2] = second compound 0.0316 µM, first compound 0.03 µM
[3] = second compound 0.0316 µM, first compound 0.0949 µM
[4] = second compound 0.0316 µM, first compound 0.3 µM
[5] = second compound 0.0316 µM, first compound 0.949 µM
[6] = second compound 0.0316 µM, first compound 3 µM
[7] = second compound 0.1 µM, first compound 0.00949 µM
[8] = second compound 0.1 µM, first compound 0.03 µM
[9] = second compound 0.1 µM, first compound 0.0949 µM
[10] = second compound 0.1 µM, first compound 0.3 µM
[11] = second compound 0.1 µM, first compound 0.949 µM
[12] = second compound 0.1 µM, first compound 3 µM
[13] = second compound 0.316 µM, first compound 0.00949 µM
[14] = second compound 0.316 µM, first compound 0.03 µM
[15] = second compound 0.316 µM, first compound 0.0949 µM
[16] = second compound 0.316 µM, first compound 0.3 µM
[17] = second compound 0.316 µM, first compound 0.949 µM
[18] = second compound 0.316 µM, first compound 3 µM
[19] = second compound 1 µM, first compound 0.00949 µM
[20] = second compound 1 µM, first compound 0.03 µM
[21] = second compound 1 µM, first compound 0.0949 µM
[22] = second compound 1 µM, first compound 0.3 µM
[23] = second compound 1 µM, first compound 0.949 µM
[24] = second compound 1 µM, first compound 3 µM
[25] = second compound 3.16 µM, first compound 0.00949 µM
[26] = second compound 3.16 µM, first compound 0.03 µM
[27] = second compound 3.16 µM, first compound 0.0949 µM
[28] = second compound 3.16 µM, first compound 0.3 µM
[29] = second compound 3.16 µM, first compound 0.949 µM
[30] = second compound 3.16 µM, first compound 3 µM
[31] = second compound 10 µM, first compound 0.00949 µM
[32] = second compound 10 µM, first compound 0.03 µM
[33] = second compound 10 µM, first compound 0.0949 µM
[34] = second compound 10 µM, first compound 0.3 µM
[35] = second compound 10 µM, first compound 0.949 µM
[36] = second compound 10 µM, first compound 3 µM

Structure (SMILES): CC1COCCN1c1cc(-c2ccnn2C)c2ccnc(-c3ccn[nH]3)c2n1 (stereo unspecified) + CC1OCC2(CCN(c3cnc(Sc4ccnc(N)c4Cl)c(N)n3)CC2)C1N
- IC50 (second compound 0.0316 µM): > 3000 nM
- IC50 (second compound 0.1 µM): 2640 nM
- IC50 (second compound 0.316 µM): 1900 nM
- IC50 (second compound 1 µM): 2050 nM
- IC50 (second compound 3.16 µM): 679 nM
- IC50 (second compound 10 µM): 760 nM
- viability, T/C [1]: 97.8%
- viability, T/C [2]: 99.4%
- viability, T/C [3]: 82.6%
- viability, T/C [4]: 72.4%
- viability, T/C [5]: 64.5%
- viability, T/C [6]: 51.5%
- viability, T/C [7]: 95.8%
- viability, T/C [8]: 95.7%
- viability, T/C [9]: 83.4%
- viability, T/C [10]: 80.4%
- viability, T/C [11]: 62.1%
- viability, T/C [12]: 48.6%
- viability, T/C [13]: 105%
- viability, T/C [14]: 101%
- viability, T/C [15]: 78.9%
- viability, T/C [16]: 64.3%
- viability, T/C [17]: 55.3%
- viability, T/C [18]: 46.4%
- viability, T/C [19]: 82.6%
- viability, T/C [20]: 94.7%
- viability, T/C [21]: 78.3%
- viability, T/C [22]: 74.5%
- viability, T/C [23]: 61.6%
- viability, T/C [24]: 44.4%
- viability, T/C [25]: 84.7%
- viability, T/C [26]: 90.5%
- viability, T/C [27]: 69.1%
- viability, T/C [28]: 63.7%
- viability, T/C [29]: 45%
- viability, T/C [30]: 32.9%
- viability, T/C [31]: 56.2%
- viability, T/C [32]: 65.5%
- viability, T/C [33]: 61.7%
- viability, T/C [34]: 58.2%
- viability, T/C [35]: 48%
- viability, T/C [36]: 24.7%

Structure (SMILES): Cn1nccc1Nc1nccc(-c2cc3c(s2)C(C)(C)N(CCN2CCOCC2)C3=O)n1 + CC1OCC2(CCN(c3cnc(Sc4ccnc(N)c4Cl)c(N)n3)CC2)C1N
- IC50 (second compound 0.0316 µM): 2080 nM
- IC50 (second compound 0.1 µM): 2730 nM
- IC50 (second compound 0.316 µM): 2530 nM
- IC50 (second compound 1 µM): 1740 nM
- IC50 (second compound 3.16 µM): 1350 nM
- IC50 (second compound 10 µM): 430 nM
- viability, T/C (second compound 0.0316 µM, first compound 0.0316 µM): 105%
- viability, T/C (second compound 0.0316 µM, first compound 0.1 µM): 127%
- viability, T/C (second compound 0.0316 µM, first compound 0.316 µM): 108%
- viability, T/C (second compound 0.0316 µM, first compound 1 µM): 78%
- viability, T/C (second compound 0.0316 µM, first compound 3.16 µM): 34.5%
- viability, T/C (second compound 0.0316 µM, first compound 10 µM): 7.19%
- viability, T/C (second compound 0.1 µM, first compound 0.0316 µM): 117%
- viability, T/C (second compound 0.1 µM, first compound 0.1 µM): 127%
- viability, T/C (second compound 0.1 µM, first compound 0.316 µM): 124%
- viability, T/C (second compound 0.1 µM, first compound 1 µM): 96.3%
- viability, T/C (second compound 0.1 µM, first compound 3.16 µM): 43.8%
- viability, T/C (second compound 0.1 µM, first compound 10 µM): 6.82%
- viability, T/C (second compound 0.316 µM, first compound 0.0316 µM): 112%
- viability, T/C (second compound 0.316 µM, first compound 0.1 µM): 120%
- viability, T/C (second compound 0.316 µM, first compound 0.316 µM): 105%
- viability, T/C (second compound 0.316 µM, first compound 1 µM): 78.8%
- viability, T/C (second compound 0.316 µM, first compound 3.16 µM): 44.2%
- viability, T/C (second compound 0.316 µM, first compound 10 µM): 5.45%
- viability, T/C (second compound 1 µM, first compound 0.0316 µM): 95.9%
- viability, T/C (second compound 1 µM, first compound 0.1 µM): 97.6%
- viability, T/C (second compound 1 µM, first compound 0.316 µM): 107%
- viability, T/C (second compound 1 µM, first compound 1 µM): 60.7%
- viability, T/C (second compound 1 µM, first compound 3.16 µM): 34.6%
- viability, T/C (second compound 1 µM, first compound 10 µM): 4.73%
- viability, T/C (second compound 3.16 µM, first compound 0.0316 µM): 79.7%
- viability, T/C (second compound 3.16 µM, first compound 0.1 µM): 90.2%
- viability, T/C (second compound 3.16 µM, first compound 0.316 µM): 80.3%
- viability, T/C (second compound 3.16 µM, first compound 1 µM): 57.7%
- viability, T/C (second compound 3.16 µM, first compound 3.16 µM): 25.5%
- viability, T/C (second compound 3.16 µM, first compound 10 µM): 8.64%
- viability, T/C (second compound 10 µM, first compound 0.0316 µM): 73%
- viability, T/C (second compound 10 µM, first compound 0.1 µM): 67.4%
- viability, T/C (second compound 10 µM, first compound 0.316 µM): 56.1%
- viability, T/C (second compound 10 µM, first compound 1 µM): 34.2%
- viability, T/C (second compound 10 µM, first compound 3.16 µM): 21.5%
- viability, T/C (second compound 10 µM, first compound 10 µM): 4.23%

Structure (SMILES): CC(=O)OC12COC1CC(O)C1(C)C(=O)C(O)C3=C(C)C(OC(=O)C(O)C(NC(=O)OC(C)(C)C)c4ccccc4)CC(O)(C(OC(=O)c4ccccc4)C21)C3(C)C (stereo unspecified) + CNCc1ccccc1-c1csc(C(C)Nc2nc(C)nc3cc(OC)c(OC)cc23)c1
- IC50 (second compound 0.0316 µM): < 9.49 nM
- IC50 (second compound 0.1 µM): < 9.49 nM
- IC50 (second compound 0.316 µM): 39.6 nM
- IC50 (second compound 1 µM): > 3000 nM
- IC50 (second compound 3.16 µM): > 3000 nM
- IC50 (second compound 10 µM): < 9.49 nM
- viability, T/C [1]: 40.6%
- viability, T/C [2]: 40.6%
- viability, T/C [3]: 49.7%
- viability, T/C [4]: 53%
- viability, T/C [5]: 49.1%
- viability, T/C [6]: 54.2%
- viability, T/C [7]: 44.2%
- viability, T/C [8]: 43.3%
- viability, T/C [9]: 51.8%
- viability, T/C [10]: 45.1%
- viability, T/C [11]: 42.9%
- viability, T/C [12]: 50%
- viability, T/C [13]: 44.8%
- viability, T/C [14]: 56.5%
- viability, T/C [15]: 54.6%
- viability, T/C [16]: 43.3%
- viability, T/C [17]: 48.8%
- viability, T/C [18]: 49%
- viability, T/C [19]: 47.3%
- viability, T/C [20]: 62.2%
- viability, T/C [21]: 68.9%
- viability, T/C [22]: 54.3%
- viability, T/C [23]: 55.4%
- viability, T/C [24]: 61.9%
- viability, T/C [25]: 78.1%
- viability, T/C [26]: 73.5%
- viability, T/C [27]: 73.8%
- viability, T/C [28]: 77.6%
- viability, T/C [29]: 76.8%
- viability, T/C [30]: 56.7%
- viability, T/C [31]: 0.32%
- viability, T/C [32]: 0.36%
- viability, T/C [33]: 0.39%
- viability, T/C [34]: 0.34%
- viability, T/C [35]: 0.34%
- viability, T/C [36]: 1.75%
